According to PubChem BioAssay AID1919016 (Molecular Pharmacology Branch, DTP, NCI, 2023):

System: NCI-H196 complex spheroid growth, percent test/control
Assay: Anticancer human tumor NCI-H196 cell line growth inhibition [AhR];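 further: seven days of drug exposure starting three days after plating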;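 on viability, T/C: 100% = DMSO vehicle control wells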
Details: for IC50: curve of first compound; for viability, T/C: stronger effect = lower value
In short: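 Spheroids combined tumor cells with HUVEC endothelial cells and human MSCs as stroma. AhR antagonists were paired with standard or investigational drugs, each dosed in half-log steps down from near clinical Cmax, or from 10 microM where Cmax was unknown.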

[1] = second compound 0.1 µM, first compound 0.00316 µM
[2] = second compound 0.1 µM, first compound 0.01 µM
[3] = second compound 0.1 µM, first compound 0.0316 µM
[4] = second compound 0.1 µM, first compound 0.1 µM
[5] = second compound 0.316 µM, first compound 0.00316 µM
[6] = second compound 0.316 µM, first compound 0.01 µM
[7] = second compound 0.316 µM, first compound 0.0316 µM
[8] = second compound 0.316 µM, first compound 0.1 µM
[9] = second compound 1 µM, first compound 0.00316 µM
[10] = second compound 1 µM, first compound 0.01 µM
[11] = second compound 1 µM, first compound 0.0316 µM
[12] = second compound 1 µM, first compound 0.1 µM
[13] = second compound 3.16 µM, first compound 0.00316 µM
[14] = second compound 3.16 µM, first compound 0.01 µM
[15] = second compound 3.16 µM, first compound 0.0316 µM
[16] = second compound 3.16 µM, first compound 0.1 µM
[17] = second compound 10 µM, first compound 0.00316 µM
[18] = second compound 10 µM, first compound 0.01 µM
[19] = second compound 10 µM, first compound 0.0316 µM
[20] = second compound 10 µM, first compound 0.1 µM
[21] = second compound 0.1 µM, first compound 0.316 µM
[22] = second compound 0.1 µM, first compound 1 µM
[23] = second compound 0.1 µM, first compound 3.16 µM
[24] = second compound 0.1 µM, first compound 10 µM
[25] = second compound 0.316 µM, first compound 0.316 µM
[26] = second compound 0.316 µM, first compound 1 µM
[27] = second compound 0.316 µM, first compound 3.16 µM
[28] = second compound 0.316 µM, first compound 10 µM
[29] = second compound 1 µM, first compound 0.316 µM
[30] = second compound 1 µM, first compound 1 µM
[31] = second compound 1 µM, first compound 3.16 µM
[32] = second compound 1 µM, first compound 10 µM
[33] = second compound 3.16 µM, first compound 0.316 µM
[34] = second compound 3.16 µM, first compound 1 µM
[35] = second compound 3.16 µM, first compound 3.16 µM
[36] = second compound 3.16 µM, first compound 10 µM
[37] = second compound 10 µM, first compound 0.316 µM
[38] = second compound 10 µM, first compound 1 µM
[39] = second compound 10 µM, first compound 3.16 µM
[40] = second compound 10 µM, first compound 10 µM

Row | Compound | IC50 (second compound 0.1 µM) [µM] | IC50 (second compound 0.316 µM) [µM] | IC50 (second compound 1 µM) [µM] | IC50 (second compound 3.16 µM) [µM] | IC50 (second compound 10 µM) [µM] | viability, T/C [3] [%] | viability, T/C [4] [%] | viability, T/C [7] [%] | viability, T/C [8] [%] | viability, T/C [11] [%] | viability, T/C [12] [%] | viability, T/C [15] [%] | viability, T/C [16] [%] | viability, T/C [19] [%] | viability, T/C [20] [%] | viability, T/C [21] [%] | viability, T/C [22] [%] | viability, T/C [25] [%] | viability, T/C [26] [%] | viability, T/C [29] [%] | also measured
1 | CC[C@@]1(O)C(=O)OCc2c1cc1n(c2=O)Cc2cc3c(CN(C)C)c(O)ccc3nc2-1 + Cc1cncc(-c2nc(NCCc3c[nH]c4ccccc34)c3ncn(C(C)C)c3n2)c1 | > 0.1 | > 0.1 | > 0.1 | > 0.1 | > 0.1 | 96.8 | 105 | 94.7 | 99.2 | 101 | 89.8 | 104 | 95.2 | 83.9 | 77.2 |  |  |  |  |  | viability, T/C (second compound 0.1 µM, first compound 0.000316 µM): 105%; viability, T/C (second compound 0.1 µM, first compound 0.001 µM): 95.5%; viability, T/C [1]: 83%; viability, T/C [2]: 88.8%; viability, T/C (second compound 0.316 µM, first compound 0.000316 µM): 101%; viability, T/C (second compound 0.316 µM, first compound 0.001 µM): 100%; viability, T/C [5]: 98.8%; viability, T/C [6]: 95.5%; viability, T/C (second compound 1 µM, first compound 0.000316 µM): 108%; viability, T/C (second compound 1 µM, first compound 0.001 µM): 103%; viability, T/C [9]: 91%; viability, T/C [10]: 92.3%; viability, T/C (second compound 3.16 µM, first compound 0.000316 µM): 104%; viability, T/C (second compound 3.16 µM, first compound 0.001 µM): 101%; viability, T/C [13]: 96.7%; viability, T/C [14]: 88.8%; viability, T/C (second compound 10 µM, first compound 0.000316 µM): 82.8%; viability, T/C (second compound 10 µM, first compound 0.001 µM): 97.7%; viability, T/C [17]: 95.7%; viability, T/C [18]: 74.1%
2 | Nc1ccn(C2OC(CO)C(O)C2(F)F)c(=O)n1 (stereo not given) + Cc1cncc(-c2nc(NCCc3c[nH]c4ccccc34)c3ncn(C(C)C)c3n2)c1 | 0.377 | 0.62 | 0.811 | 0.289 | > 10 | 71.4 | 60.1 | 83.1 | 62.8 | 71.5 | 60.7 | 81.3 | 70.6 | 76.6 | 88.1 | 50.4 | 48.8 | 51.4 | 47.3 | 49.5 | viability, T/C [23]: 43.4%; viability, T/C [24]: 52%; viability, T/C [27]: 51.3%; viability, T/C [28]: 43.8%; viability, T/C [30]: 54.3%; viability, T/C [31]: 45.5%; viability, T/C [32]: 46.7%; viability, T/C [33]: 48.3%; viability, T/C [34]: 45.2%; viability, T/C [35]: 47.8%; viability, T/C [36]: 45.3%; viability, T/C [37]: 78%; viability, T/C [38]: 53.1%; viability, T/C [39]: 54.8%; viability, T/C [40]: 57.1%
3 | Nc1ncn(C2CC(O)C(CO)O2)c(=O)n1 (stereo not given) + Cc1cncc(-c2nc(NCCc3c[nH]c4ccccc34)c3ncn(C(C)C)c3n2)c1 | > 1 | > 1 | > 1 | > 1 | > 1 | 104 | 97.9 | 114 | 104 | 115 | 96.3 | 109 | 111 | 104 | 89.6 | 107 | 99.8 | 105 | 105 | 117 | viability, T/C [1]: 110%; viability, T/C [2]: 105%; viability, T/C [5]: 106%; viability, T/C [6]: 98.5%; viability, T/C [9]: 122%; viability, T/C [10]: 106%; viability, T/C [30]: 103%; viability, T/C [13]: 102%; viability, T/C [14]: 112%; viability, T/C [33]: 108%; viability, T/C [34]: 109%; viability, T/C [17]: 96.2%; viability, T/C [18]: 86.9%; viability, T/C [37]: 87.8%; viability, T/C [38]: 86.1%

Further lines, with some results ahead:

Row | IC50 (second compound 0.1 µM) [µM] | IC50 (second compound 0.316 µM) [µM] | IC50 (second compound 1 µM) [µM] | IC50 (second compound 3.16 µM) [µM] | IC50 (second compound 10 µM) [µM] | Compound | viability, T/C [3] [%] | viability, T/C [4] [%] | viability, T/C [7] [%] | viability, T/C [8] [%] | viability, T/C [11] [%] | viability, T/C [12] [%] | viability, T/C [15] [%] | viability, T/C [16] [%] | viability, T/C [19] [%] | viability, T/C [20] [%] | viability, T/C [21] [%] | viability, T/C [22] [%] | viability, T/C [25] [%] | viability, T/C [26] [%] | viability, T/C [29] [%] | also measured
4 | > 10 | > 10 | > 10 | > 10 | > 10 | COc1cc(C2c3cc4c(cc3C(OC3OC5COC(C)OC5C(O)C3O)C3COC(=O)C23)OCO4)cc(OC)c1O (stereo not given) + Cc1cncc(-c2nc(NCCc3c[nH]c4ccccc34)c3ncn(C(C)C)c3n2)c1 | 104 | 103 | 104 | 109 | 99.7 | 112 | 108 | 114 | 89.1 | 92 | 98.9 | 99.8 | 101 | 105 | 104 | viability, T/C [23]: 103%; viability, T/C [24]: 96.7%; viability, T/C [27]: 112%; viability, T/C [28]: 89.4%; viability, T/C [30]: 109%; viability, T/C [31]: 103%; viability, T/C [32]: 77.8%; viability, T/C [33]: 112%; viability, T/C [34]: 105%; viability, T/C [35]: 100%; viability, T/C [36]: 81.9%; viability, T/C [37]: 101%; viability, T/C [38]: 84.3%; viability, T/C [39]: 77.4%; viability, T/C [40]: 62%
5 | 0.545 | 0.528 | 0.458 | 0.414 | 0.33 | COc1cccc2c1C(=O)c1c(O)c3c(c(O)c1C2=O)CC(O)(C(=O)CO)CC3OC1CC(N)C(O)C(C)O1 (stereo not given) + Cc1cncc(-c2nc(NCCc3c[nH]c4ccccc34)c3ncn(C(C)C)c3n2)c1 | 117 | 102 | 109 | 115 | 110 | 106 | 119 | 95.9 | 94.2 | 77.8 | 72.1 | 27.3 | 77.3 | 15.7 | 66.3 | viability, T/C [23]: 2.2%; viability, T/C [24]: 2.04%; viability, T/C [27]: 0.7%; viability, T/C [28]: 1.46%; viability, T/C [30]: 15.6%; viability, T/C [31]: 0.61%; viability, T/C [32]: 3.01%; viability, T/C [33]: 66.2%; viability, T/C [34]: 6.46%; viability, T/C [35]: 1.24%; viability, T/C [36]: 2.12%; viability, T/C [37]: 53.6%; viability, T/C [38]: 2.32%; viability, T/C [39]: 0.59%; viability, T/C [40]: 1.88%
